The test system of series [1] is type 2 diabetes patients. Conditions: cited from earlier work.
Series [2] has as its system type 2 diabetes patients. Nature of the series: Hyperglycemia Efficacy Index (HEI) of diabetes drugs, from review of phase III trials with 7- or 8-point SMBG. It counts as in vivo, human. Conditions: median ratio of effect on FBG vs effect on PPG; drugs from the same class have the same HEI. From the text:
Such results can be e.g. assessed via scientific publications or regulatory documents which disclose the results for the trials. Suitable scientific publications describing such trials for individual drugs can be, e.g., identified via PubMed. In an embodiment, the trials have assessed large cohorts of diabetes patients such as type 2 diabetes patients and report 7- or 8 point self-monitoring blood glucose data with determinations carried out in the fasting state, in the pre-prandial state and in the post-prandial state. In an embodiment, the trials include only type 2 diabetes patients without major comorbidities.
For establishing the database, the published information on the effects under (d1), (d2), and the risk under (d4) shall be taken into account. The indices under (d3), can be determined based on the published information for the analyzed trials.
In an embodiment, the Hyperglycemia Efficacy Index (HEI) for a drug is the ratio of the effect of said drug on fasting glucose to the effect of said drug on post-prandial glucose (i.e. the effect under (d1) and the effect under (d2)).

Entries after “also recorded” stand apart in the source; their conditions may differ. Like-named read-outs stand apart in the source and are kept apart here.

In the case of `CCCCCCCCCCCCCCCC(=O)N[C@@H](CCC(=O)NCCCC[C@H](NC(=O)[C@H](C)NC(=O)[C@H](C)NC(=O)[C@H](CCC(N)=O)NC(=O)CNC(=O)[C@H](CCC(=O)O)NC(=O)[C@H](CC(C)C)NC(=O)[C@H](Cc1ccc(O)cc1)NC(=O)[C@H](CO)NC(=O)[C@H](CO)NC(=O)[C@@H](NC(=O)[C@H](CC(=O)O)NC(=O)[C@H](CO)NC(=O)[C@@H](NC(=O)[C@H](Cc1ccccc1)NC(=O)[C@@H](NC(=O)CNC(=O)[C@H](CCC(=O)O)NC(=O)[C@H](C)NC(=O)[C@@H](N)Cc1cnc[nH]1)[C@@H](C)O)[C@@H](C)O)C(C)C)C(=O)N[C@@H](CCC(=O)O)C(=O)N[C@@H](Cc1ccccc1)C(=O)N[C@H](C(=O)N[C@@H](C)C(=O)N[C@@H](Cc1c[nH]c2ccccc12)C(=O)N[C@@H](CC(C)C)C(=O)N[C@H](C(=O)N[C@@H](CCCNC(=N)N)C(=O)NCC(=O)N[C@@H](CCCNC(=N)N)C(=O)NCC(=O)O)C(C)C)[C@@H](C)CC)C(=O)O` [Liraglutide], the “Hypo Risk Index (HRI)” value in series [1] (1.2 mg) and in series [1] (1.8 mg) was “HRI 1 - low” throughout.
For `CN(C)C(=N)N=C(N)N` [Metformin], the “Hyperglycemia Efficacy Index (HEI)” value in series [2] is listed as “HEI 0.59”. Also, the “Hypo Risk Index (HRI)” value in series [1] (≥1000 mg) is “HRI 1 - low”.
As for `Cc1ccc(S(=O)(=O)NC(=O)NN2CC3CCCC3C2)cc1` (stereo not drawn) [Gliclazide], the “Hypo Risk Index (HRI)” value in series [1] (80-320 mg) is on record as “HRI 2 - moderate; also recorded: HRI 2 - medium”.
For the molecule `OC[C@H]1O[C@@H](c2ccc(Cl)c(Cc3ccc(O[C@H]4CCOC4)cc3)c2)[C@H](O)[C@@H](O)[C@@H]1O` [Empagliflozin], the “Hyperglycemia Efficacy Index (HEI)” value in series [2] was “HEI 0.56”. Moreover, the “Hypo Risk Index (HRI)” value in series [1] (10 mg) and in series [1] (25 mg) was “HRI 1 - low” each time.
Turning to Exenatide LAR, in series [2], the “Hyperglycemia Efficacy Index (HEI)” value is “HEI 0.76”. Moreover, in series [1] (2 mg), the “Hypo Risk Index (HRI)” value is on record as “HRI 1 - low”.
For the molecule `C[C@H]1O[C@H](O[C@H]2[C@H](O)[C@@H](O)[C@@H](O[C@H]3[C@H](O)[C@@H](O)C(O)O[C@@H]3CO)O[C@@H]2CO)[C@H](O)[C@@H](O)[C@@H]1N[C@H]1C=C(CO)[C@@H](O)[C@H](O)[C@H]1O` (stereo partly drawn) [Acarbose], the “Hyperglycemia Efficacy Index (HEI)” value in series [2] is given as “HEI 0.54”. Besides, the “Hypo Risk Index (HRI)” value in series [1] (30 mg) and in series [1] (300 mg) was “HRI 1 - low” throughout.
With `CCOc1ccc(Cc2cc([C@@H]3O[C@H](CO)[C@@H](O)[C@H](O)[C@H]3O)ccc2Cl)cc1` [Dapagliflozin], the “Hypo Risk Index (HRI)” value in series [1] (10 mg) is listed as “HRI 1 - low”.
With Dulaglutide, the “Hypo Risk Index (HRI)” value in series [1] (0.75 mg) and in series [1] (1.5 mg) was “HRI 1 - low” each time.
As for `CCC1=C(C)CN(C(=O)NCCc2ccc(S(=O)(=O)NC(=O)N[C@H]3CC[C@H](C)CC3)cc2)C1=O` [Glimepiride], the “Hypo Risk Index (HRI)” value in series [1] (1-8 mg) is on record as “HRI 2 - moderate; also recorded: HRI 2 - medium”.
Take `Cc1ccc([C@@H]2O[C@H](CO)[C@@H](O)[C@H](O)[C@H]2O)cc1Cc1ccc(-c2ccc(F)cc2)s1` [Canagliflozin]: the “Hypo Risk Index (HRI)” value in series [1] (100 mg) and in series [1] (300 mg) was “HRI 1 - low” throughout.
Regarding `CCOc1cc(CC(=O)N[C@@H](CC(C)C)c2ccccc2N2CCCCC2)ccc1C(=O)O` [Repaglinide], the “Hyperglycemia Efficacy Index (HEI)” value in series [2] is on record as “HEI 0.62”. Also, the “Hypo Risk Index (HRI)” value in series [1] (1.5-12 mg) is “HRI 2 - medium”.

The values are drawn from patent publication US20220101973A1, “PERSONALIZED TREATMENT TOOL” (Roche Diabetes Care, Inc., priority 2018, published 2022).
